Results: patent US8524481B2, “Hide processing methods and compositions” (priority 2010, dated 2013)
Structures can show the parent of a compound that is named as a salt. Where two headings read alike, the source gives them in different places. Square brackets hold non-standard residues; d marks the D form. Peptide text beside a SMILES is read from it. * marks the point of attachment. Sta = CC(C)C[C@H](N)[C@@H](O)CC(=O)O; Isovaleryl = CC(C)CC(=O)*

Columns and labels:
[1] = system: protease from strain SRC002 (MTCC 5564); assay: Effect of inhibitors, metals and chemicals on protease activity; type: biochemical, Pseudomonas aeruginosa; details: for effect on protease activity: EGTA 10 mM, 1,10 Phenanthrolin 2 mM, Phosphoramidone 500 μg/ml, Antipain 20 μM, Bestatin 50 μg/ml, Chymostatin 20 μM, E-64 2 μM, Pepstatin 1 μM, Ebelacetone-B 1 μM
Strain B/GZN (MTCC 5566) = assay: Antibiotic sensitivity by disk diffusion method, Strain B; type: cell-based, Pseudomonas aeruginosa; details: Himedia antibiotic discs, Mueller Hinton Agar, 37° C. overnight
Protocol: (§1) The sensitivity of the strains against different antibiotics was determined by disk diffusion method using commercially available (Himedia) antibiotic discs. The representative of each group of antibiotic had been tested. The antibiotics used were Ampicillin (A10), Cephadroxil (Cq30), Chloramphenicol (C30), Cloxacillin (Cx30), Cephotaxime (Ce30), Ceftazidime (Ca30), Ciprofloxacin (Cf5), Doxycycline Hydrochloride (Do30), Gentamicin (G10), Metronidazole (Mt4), Neomycin (N30), Norfloxacin (Nx10), Polymyxin B (Pb100), Rifampicin (R15), Roxithromycin (Ro30), Tetracycline (T30), Trimethoprin (Tr30), Vancomycin (Va30). The concentrations of the antibiotics in microgram per disc were mentioned in parenthesis indicated above except for Polymyxin B where it is 100 units. Mueller Hinton Agar medium (Himedia-M173) was used to grow each of the microorganisms for antibiotic sensitivity test. The log phase culture of each isolate was diluted 100 times and poured on Mueller Hinton Agar (MHA) plates. It was swirled uniformly to distribute the culture throughout the plate. After waiting for 30 mins, the cultures were carefully pipetted out from the plates and the plates were allowed to dry. Then the antibiotic disks were placed onto the MHA surface using the dispenser provided with the antibiotic discs. The plates were incubated at 37° C. for overnight. The zones of inhibition were measured. The results were evaluated using National Committee for Clinical Laboratory Standard's (NCCLS) chart provided with the antibiotic discs by Himedia. The assay was repeated three times for each organism.

[2] = system: Strain A/SRC002 (MTCC 5564); assay: Antibiotic sensitivity by disk diffusion method, Strain A; type: cell-based, Pseudomonas aeruginosa; details: Himedia antibiotic discs, Mueller Hinton Agar, 37° C. overnight
Protocol: as §1

[3] = concentration not given, crude enzyme for the partial inhibitors

Row | Compound | effect on enzyme activity [1, 3] | antibiotic sensitivity (zones of inhibition evaluated by NCCLS chart) (Strain B/GZN (MTCC 5566)) | antibiotic sensitivity (zones of inhibition evaluated by NCCLS chart) [2] | other results
1 | c1cnc2c(c1)ccc1cccnc12 [1,10 Phenanthrolin] | completely inhibited | – | – | effect on protease activity [1]: completely inhibited
2 | [Ag] [Ag] | – | – | – | enzyme activity retained in the presence of metal ([1]; concentration not given): 76%
3 | [Al] [Al] | – | – | – | enzyme activity retained in the presence of metal ([1]; concentration not given): 70%
4 | CC1(C)S[C@@H]2[C@H](NC(=O)[C@H](N)c3ccccc3)C(=O)N2[C@H]1C(=O)O [Ampicillin] | – | resistant | resistant | –
5 | CC(C)C[C@H](NC(=O)[C@@H](O)[C@H](N)Cc1ccccc1)C(=O)O [Bestatin] | no inhibitory effect | – | – | effect on protease activity [1]: almost no effect
6 | [Cd] [Cd] | – | – | – | enzyme activity retained in the presence of metal ([1]; concentration not given): 34%
7 | CC(C)(O/N=C(\C(=O)N[C@@H]1C(=O)N2C(C(=O)[O-])=C(C[n+]3ccccc3)CS[C@H]12)c1csc(N)n1)C(=O)O [Ceftazidime] | – | intermediate response | resistant | –
8 | CC1=C(C(=O)O)N2C(=O)[C@@H](NC(=O)[C@H](N)c3ccc(O)cc3)[C@H]2SC1 [Cephadroxil] | – | – | resistant | –
9 | CO/N=C(\C(=O)N[C@@H]1C(=O)N2C(C(=O)O)=C(COC(C)=O)CS[C@H]12)c1csc(N)n1 [Cephotaxime] | – | intermediate response | resistant | –
10 | CC(C)C[C@H](NC(=O)[C@@H](NC(=O)N[C@@H](Cc1ccccc1)C(=O)O)[C@@H]1CCN=C(N)N1)C(=O)N[C@H](C=O)Cc1ccccc1 [Chymostatin] | no inhibitory effect | – | – | effect on protease activity [1]: almost no effect
11 | O=C(O)c1cn(C2CC2)c2cc(N3CCNCC3)c(F)cc2c1=O [Ciprofloxacin] | – | resistant | sensitive | –
12 | O=C(N[C@H](CO)[C@H](O)c1ccc([N+](=O)[O-])cc1)C(Cl)Cl [Cloramphenicol, Chloramphenicol] | – | intermediate response | resistant | –
13 | Cc1onc(-c2ccccc2Cl)c1C(=O)N[C@@H]1C(=O)N2[C@@H]1SC(C)(C)[C@@H]2C(=O)O [Cloxacillin] | – | – | resistant | –
14 | [Co] [Co] | – | – | – | enzyme activity retained in the presence of metal ([1]; concentration not given): 82%
15 | [Cr] [Cr] | – | – | – | enzyme activity retained in the presence of metal [1]: up to 90%
16 | [Cu] [Cu] | – | – | – | enzyme activity retained in the presence of metal ([1]; concentration not given): 50%
17 | C[C@H]1c2cccc(O)c2C(=O)C2=C(O)[C@]3(O)C(=O)C(C(N)=O)=C(O)[C@@H](N(C)C)[C@@H]3[C@@H](O)[C@@H]21 [Doxycycline hydrochloride, Doxycycline Hydrochloride] | – | resistant | resistant | –
18 | O=C(O)CN(CCN(CC(=O)O)CC(=O)O)CC(=O)O [EDTA] | – | – | – | effect on enzyme activity [1]: inactivated
19 | O=C(O)CN(CCOCCOCCN(CC(=O)O)CC(=O)O)CC(=O)O [EGTA] | completely inhibited | – | – | effect on protease activity [1]: completely inhibited

Row | Compound | effect on enzyme activity [1, 3] | antibiotic sensitivity (zones of inhibition evaluated by NCCLS chart) (Strain B/GZN (MTCC 5566)) | antibiotic sensitivity (zones of inhibition evaluated by NCCLS chart) [2] | other results
20 | CC[C@@H](C)[C@@H](O)[C@H](C)C(=O)[C@H](C)/C=C(\C)C[C@H](C)[C@@H]1OC(=O)[C@H]1CC [Ebelacetone-B] | no inhibitory effect | – | – | effect on protease activity [1]: almost no effect
21 | [Hg] [Hg] | complete inhibition | – | – | –
22 | Cc1ncc([N+](=O)[O-])n1CCO [Metronidazole] | – | – | resistant | –
23 | NC[C@@H]1O[C@H](O[C@H]2[C@@H](O)[C@H](O[C@@H]3[C@@H](O)[C@H](N)C[C@H](N)[C@H]3O[C@H]3O[C@H](CN)[C@@H](O)[C@H](O)[C@H]3N)O[C@@H]2CO)[C@H](N)[C@@H](O)[C@@H]1O [Neomycine, Neomycin] | – | intermediate response | sensitive | –
24 | [Ni] [Ni] | – | – | – | enzyme activity retained in the presence of metal ([1]; concentration not given): 70%
25 | CCn1cc(C(=O)O)c(=O)c2cc(F)c(N3CCNCC3)cc21 [Norfloxacine, Norfloxacin] | – | resistant | sensitive | –
26 | [Pb] [Pb] | – | – | – | enzyme activity retained in the presence of metal ([1]; concentration not given): 50%
27 | CC(C)CC(=O)N[C@H](C(=O)N[C@H](C(=O)N[C@@H](CC(C)C)[C@@H](O)CC(=O)N[C@@H](C)C(=O)N[C@@H](CC(C)C)[C@@H](O)CC(=O)O)C(C)C)C(C)C [Pepstatin] (Isovaleryl-VV[Sta]A[Sta]-OH) | no inhibitory effect | – | – | effect on protease activity [1]: almost no effect
28 | CC(C)C[C@H](NP(=O)(O)O[C@@H]1O[C@@H](C)[C@H](O)[C@@H](O)[C@H]1O)C(=O)N[C@@H](Cc1c[nH]c2ccccc12)C(=O)O [Phosphoramidone] | completely inhibited | – | – | effect on protease activity [1]: completely inhibited
29 | CC(C)C[C@H](NC(=O)[C@H]1O[C@@H]1C(=O)O)C(=O)NCCCCN=C(N)N [Strain E-64, E-64] | no inhibitory effect | – | – | effect on protease activity [1]: almost no effect
30 | CN(C)[C@@H]1C(=O)C(C(N)=O)=C(O)[C@@]2(O)C(=O)C3=C(O)c4c(O)cccc4[C@@](C)(O)[C@H]3C[C@@H]12 [Tetracyclin, Tetracycline] | – | resistant | resistant | –
31 | COc1cc(Cc2cnc(N)nc2N)cc(OC)c1OC [Trimethoprim] | – | intermediate response | resistant | –
32 | CN[C@H](CC(C)C)C(=O)N[C@H]1C(=O)N[C@@H](CC(N)=O)C(=O)N[C@H]2C(=O)N[C@H]3C(=O)N[C@H](C(=O)N[C@H](C(=O)O)c4cc(O)cc(O)c4-c4cc3ccc4O)[C@H](O)c3ccc(c(Cl)c3)Oc3cc2cc(c3O[C@@H]2O[C@H](CO)[C@@H](O)[C@H](O)[C@H]2O[C@H]2C[C@](C)(N)[C@H](O)[C@H](C)O2)Oc2ccc(cc2Cl)[C@H]1O [Vancomycin] | – | resistant | resistant | –
33 | [Zn] [Zn] | – | – | – | enzyme activity retained in the presence of metal ([1]; concentration not given): 34%
34 | OCCS [beta-merceptoethanol] | partially inhibited | – | – | –
35 | OO [hydrogen peroxide] | partially inhibited | – | – | –
36 | Gentamicin [Gentamycine] | – | sensitive | resistant | –
37 | Polymyxin B [PolymyxinB] | – | resistant | resistant | –
38 | Triton X 100 | partially inhibited | – | – | –
